# Test results as given in the supplement of paper PMC10733146.
# Experiments:
# Experiment in all cases: viability relative to DMSO control (fraction); higher = less drug effect (more viable cells)
# Details in all cases: 48 h
# [1] = system: primary ALL patient cells (S088)
# In short: (§1)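 Viability was measured as CellTiter-Glo luminescence relative to the median of 16 inner DMSO wells. Primary mononuclear tumour cells, fresh or cryopreserved, were Ficoll-isolated from blood or bone marrow or taken from processed lymph node. They were seeded at 4 × 10^4 cells per well into 384-well plates holding pre-plated compounds at five concentrations, one well each, and kept in RPMI-1640 with penicillin/streptomycin, L-glutamine and human serum at 37 °C and 5% CO2 for 48 h.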
# [2] = system: primary AML patient cells (S006)
# In short: as §1
# [3] = system: primary AML patient cells (S009)
# In short: as §1
# [4] = system: primary AML patient cells (S012)
# In short: as §1
# [5] = system: primary AML patient cells (S017)
# In short: as §1
# [6] = system: primary AML patient cells (S056)
# In short: as §1
# [7] = system: primary AML patient cells (S060)
# In short: as §1
# [8] = system: primary AML patient cells (S071)
# In short: as §1
# [9] = system: primary AML patient cells (S072)
# In short: as §1
# [10] = system: primary AML patient cells (S079)
# In short: as §1
# [11] = system: primary AML patient cells (S085)
# In short: as §1
# [12] = system: primary B-PLL patient cells (S016)
# In short: as §1
# [13] = system: primary BL patient cells (S005)
# In short: as §1
# [14] = system: primary CLL patient cells (S031)
# In short: as §1
# [15] = system: primary CLL patient cells (S043)
# In short: as §1
# [16] = system: primary DLBCL patient cells (S082)
# In short: as §1
# [17] = system: primary FL patient cells (S087)
# In short: as §1
# [18] = system: primary MCL patient cells (S041)
# In short: as §1
# [19] = system: primary MCL patient cells (S053)
# In short: as §1
# [20] = system: primary MCL patient cells (S063)
# In short: as §1
smiles,measurement,setting,value
O=C(Nc1cccc(C(F)(F)F)c1)Nc1cc(S(=O)(=O)NC2CC2)ccc1-c1ccsc1 [AGI-6780],viability,[1]; 0.024 µM,0.408
same,viability,[1]; 0.12 µM,0.417
same,viability,[1]; 0.6 µM,0.322
same,viability,[1]; 3 µM,0.258
same,viability,[1]; 15 µM,0.205
same,viability,[2]; 0.024 µM,0.94
same,viability,[2]; 0.12 µM,1.01
same,viability,[2]; 0.6 µM,1.02
same,viability,[2]; 3 µM,0.974
same,viability,[2]; 15 µM,0.993
same,viability,[3]; 0.024 µM,0.807
same,viability,[3]; 0.12 µM,0.796
same,viability,[3]; 0.6 µM,0.875
same,viability,[3]; 3 µM,0.834
same,viability,[3]; 15 µM,0.749
same,viability,[4]; 0.024 µM,1.03
same,viability,[4]; 0.12 µM,1.01
same,viability,[4]; 0.6 µM,1
same,viability,[4]; 3 µM,0.941
same,viability,[4]; 15 µM,0.868
same,viability,[5]; 0.024 µM,0.881
same,viability,[5]; 0.12 µM,0.938
same,viability,[5]; 0.6 µM,0.919
same,viability,[5]; 3 µM,0.908
same,viability,[5]; 15 µM,0.982
same,viability,[6]; 0.024 µM,1.03
same,viability,[6]; 0.12 µM,0.821
same,viability,[6]; 0.6 µM,0.834
same,viability,[6]; 3 µM,0.783
same,viability,[6]; 15 µM,0.7
same,viability,[7]; 0.024 µM,0.963
same,viability,[7]; 0.12 µM,1
same,viability,[7]; 0.6 µM,0.991
same,viability,[7]; 3 µM,0.886
same,viability,[7]; 15 µM,0.91
same,viability,[8]; 0.024 µM,0.803
same,viability,[8]; 0.12 µM,0.828
same,viability,[8]; 0.6 µM,0.826
same,viability,[8]; 3 µM,0.78
same,viability,[8]; 15 µM,0.607
same,viability,[9]; 0.024 µM,0.98
same,viability,[9]; 0.12 µM,0.904
same,viability,[9]; 0.6 µM,0.884
same,viability,[9]; 3 µM,0.764
same,viability,[9]; 15 µM,0.769
same,viability,[10]; 0.024 µM,0.935
same,viability,[10]; 0.12 µM,0.943
same,viability,[10]; 0.6 µM,0.925
same,viability,[10]; 3 µM,0.887
same,viability,[10]; 15 µM,0.802
same,viability,[11]; 0.024 µM,0.793
same,viability,[11]; 0.12 µM,0.809
same,viability,[11]; 0.6 µM,0.734
same,viability,[11]; 3 µM,0.672
same,viability,[11]; 15 µM,0.691
same,viability,[12]; 0.024 µM,0.776
same,viability,[12]; 0.12 µM,0.947
same,viability,[12]; 0.6 µM,0.954
same,viability,[12]; 3 µM,0.851
same,viability,[12]; 15 µM,0.981
same,viability,[13]; 0.024 µM,0.818
same,viability,[13]; 0.12 µM,0.915
same,viability,[13]; 0.6 µM,0.932
same,viability,[13]; 3 µM,0.778
same,viability,[13]; 15 µM,0.886
same,viability,[14]; 0.024 µM,0.679
same,viability,[14]; 0.12 µM,0.703
same,viability,[14]; 0.6 µM,0.727
same,viability,[14]; 3 µM,0.701
same,viability,[14]; 15 µM,0.612
same,viability,[15]; 0.024 µM,0.927
same,viability,[15]; 0.12 µM,1.05
same,viability,[15]; 0.6 µM,0.988
same,viability,[15]; 3 µM,0.905
same,viability,[15]; 15 µM,0.935
same,viability,[16]; 0.024 µM,0.796
same,viability,[16]; 0.12 µM,0.96
same,viability,[16]; 0.6 µM,0.91
same,viability,[16]; 3 µM,0.905
same,viability,[16]; 15 µM,0.983
same,viability,[17]; 0.024 µM,0.891
same,viability,[17]; 0.12 µM,0.944
same,viability,[17]; 0.6 µM,0.923
same,viability,[17]; 3 µM,0.906
same,viability,[17]; 15 µM,0.798
same,viability,[18]; 0.024 µM,0.913
same,viability,[18]; 0.12 µM,0.898
same,viability,[18]; 0.6 µM,0.856
same,viability,[18]; 3 µM,0.868
same,viability,[18]; 15 µM,0.806
same,viability,[19]; 0.024 µM,0.741
same,viability,[19]; 0.12 µM,0.807
same,viability,[19]; 0.6 µM,0.851
same,viability,[19]; 3 µM,0.788
same,viability,[19]; 15 µM,0.88
same,viability,[20]; 0.024 µM,0.935
same,viability,[20]; 0.12 µM,0.969
same,viability,[20]; 0.6 µM,0.96
same,viability,[20]; 3 µM,0.843
same,viability,[20]; 15 µM,0.982
